Series [1] is described as follows: Pharmacokinetics after oral administration to rats. It is filed as in vivo, rat. The source says:
In one embodiment, the compound may even show an apparent elimination half-life of at least about 30 days or even at least 35 days. […] The results observed were completely unexpected in view of the previous rat experiments showing a half-life of about a week [Batzl-Hartmann et al, 1994 and Bhatnagar et al, 1996]. This surprising extremely long half-life of the compound in humans gives rise to the particular dosing scheduled of the invention.

Series [2] can be described thus: Toxicologic studies in female and male dogs, weekly oral dosing. The series is classed as in vivo, dog. The source says: Generally, the inter-animal variability in Cmax levels was small.
Series [3] has as its system estrone, estrone sulfate and estradiol. Description: Single ascending dose study in women, pharmacodynamics (estrogen suppression). The series is classed as in vivo, human. Here is the method:
(§1) Patients received either 0.1 mg, 1 mg, and 10 mg drug substance containing hard gelatin capsules or appropriate matching placebo capsules.
(§2) A minimal toxic dose (MTD) was not reached. […] Table 3 presents the PK parameters based on preliminary analysis of the concentration-time profile obtained from this study.

The nature of series [4]: Single ascending dose study in women, safety and bone density (DEXA). The series is classed as in vivo. The following applies: single doses 0.01 mg through 20 mg, post-menopausal women. As for the experimental part:
as §1, §2

The test system of series [5] is serum testosterone and estradiol. The series is described as follows: 12 week open label dose-finding study (Part 1) in obese hypogonadotropic hypogonadal men. It is filed as in vivo, human. From the text:
The study is designed as a 2-part study, with Part 1 being open-label to best determine the appropriate dose levels to use in Part 2, which has a randomized, double-blind, placebo controlled design.
As set out above, this is a two-part study in obese, hypogonadotropic hypogonadal (OHH) men, wherein Part 1 is a single group, open label, non-randomized study establishing appropriate dosing. After all subjects have successfully completed 4 weeks of treatment, they continue for up to a total of 12 weeks of treatment. Then Part 2 follows as a parallel group, randomized, double-blind, placebo-controlled design, for 12 weeks of treatment, with an interim analysis after 4 weeks of treatment. Both Parts of the study have up to a 28 day screening period, a single baseline day, a 12 week treatment period (11 weekly doses), followed by a 3 month follow-up period.
Thus, for Part 1 of the study, it was decided to start with 0.01 mg as the loading dose, assess the testosterone response at 5 or 6 days after a single dose, and adjust the next weekly dose up or down based on the acute testosterone response. The weekly maintenance dose is not expected to exceed 0.5 mg. For at least the first 4 weeks of treatment, subject's sex steroid levels are measured prior to their subsequent dosing. The subsequent dose is the adjusted based on the prior response.
If free testosterone is above normal, the Week 2 dose will be 1/10 (0.001 mg) of the loading dose. If free testosterone is below normal, the Week 2 dose will be ½ of the loading dose (0.005 mg). Subsequent weekly doses are adjusted on a ½ log order to achieve normalization of free testosterone levels.
Assessments and evaluations: The following assessments will be performed during the study: • 1. Background, demographic and administrative assessments • Inclusion/exclusion criteria; Relevant medical history/Current medical conditions • Demography • Physical examination, including digital prostate examination • International Prostate Symptom Score (IPSS) • Hepatitis screen, HIV screen • Alcohol test, Drug screen • Prolactin, ferritin and thyroid stimulating hormone (TSH) • Drug administration: each time study drug is administered • Study Completion information • Comments • 2. Safety and tolerability assessments • Vital signs and body measurements • Body height (BMI will be calculated) • Body weight* • Body temperature • Blood pressure, pulse rate • ECG evaluations • Hematology; Blood chemistry; Urinalysis • Prostate specific antigen (PSA) • Adverse events: from time of first administration of study drug until Study Completion. Adverse events occurring before starting study treatment but after signing the informed consent form are recorded on the Medical History/Current Medical Conditions Case Report Form. • Serious adverse events: from time of consent until 30 days after Study Completion • Concomitant medications/Significant non-drug therapies: Refer to entry criteria and Concomitant medication for details of recording requirements for allowed and restricted medications during the study. • 3. Pharmacokinetic (PK) blood assessments: PK samples will be collected on multiple occasions during the treatment phase of the study. PK assessments will also be collected every 6 weeks during the safety follow-up period. […]

Series [6] in a line: Physicochemical properties of the crystalline compound. Particulars: crystalline powder.
The conditions of series [7]: previous rat experiments; Batzl-Hartmann 1994, Bhatnagar 1996; cited from earlier work.
The target in series [8] is T1, aromatase (Rattus norvegicus, UniProt P22443).
T1 construct: host or cells: adult female rats (whole animal, endogenous enzyme)
T1 sequence (P22443 1-508): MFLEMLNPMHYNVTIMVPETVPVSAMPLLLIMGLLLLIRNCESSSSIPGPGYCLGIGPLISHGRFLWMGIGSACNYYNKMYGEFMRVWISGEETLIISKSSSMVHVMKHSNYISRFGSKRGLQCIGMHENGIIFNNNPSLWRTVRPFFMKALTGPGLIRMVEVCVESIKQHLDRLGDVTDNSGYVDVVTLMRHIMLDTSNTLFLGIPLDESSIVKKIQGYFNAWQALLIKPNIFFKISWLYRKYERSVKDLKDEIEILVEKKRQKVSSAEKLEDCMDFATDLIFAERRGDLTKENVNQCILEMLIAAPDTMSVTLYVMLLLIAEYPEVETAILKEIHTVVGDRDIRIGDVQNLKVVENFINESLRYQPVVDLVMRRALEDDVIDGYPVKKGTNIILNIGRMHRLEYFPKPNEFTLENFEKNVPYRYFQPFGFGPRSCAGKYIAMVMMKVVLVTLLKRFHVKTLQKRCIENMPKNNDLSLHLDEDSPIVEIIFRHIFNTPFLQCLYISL
The following applies: once weekly administration, adult female rats; Batzl-Hartmann et al, 1994; cited from earlier work.

Setting [9] is: weekly oral doses 0.003 mg to 5 mg.

Molecules are shown by their SMILES. Read-outs that look alike come from different tables or passages of the source.

As for `N#Cc1ccc(C(F)(c2ccc(C#N)cc2)n2cncn2)cc1` [CGP47645, 4,4′-[fluoro-(1-H-1,2,4-triazol-1-yl)methylene]bisbenzonitrile], the “exposure (AUC) versus dose” value in series [1] was “proportional to the administered dose”. In addition, the half-life in series [1] (rat, in vivo, read-out: T½ (converted)) was 75 h. In addition, the Tmax – broadly, the time at which the peak concentration occurs – in series [2] (both sexes, dog, plasma, oral, dogs, post dose) lay within 1 to 24 h. In addition, the “difference in exposure (AUC and Cmax) between male and female dogs” value in series [2] (dogs) is given as “no consistent difference”. Also, in series [2] (dogs, weekly oral dosing for 4 or 22 weeks versus single dose), the drug accumulation result is reported as “no drug accumulation”. Also, in series [2] (male and female dogs, single and multiple doses), the “increase in exposure (AUC and Cmax) versus dose” value is “generally proportional to the dose increase”. For the same compound, in series [2] (male dogs after 1, 4 and 12 weeks of dosing), the serum testosterone levels result is given as “dramatically elevated testosterone levels at all dose levels”. Moreover, the “estrone suppression compared with letrozole” value in series [3] (postmenopausal women, doses of 0.1 mg and 0.3 mg, letrozole 2.5 mg) is on record as “at least equal to letrozole”. In series [3] (single doses, women), the “inhibition of estrone, estrone sulfate and estradiol” value was “dose-dependent inhibition”. For the same compound, the “minimal toxic dose (MTD)” value in series [4] was “not reached”. The tolerability entry in series [5] (14 obese hypogonadal men, weekly oral doses 0.003 mg to 5 mg, 12 weeks) was “tolerated CGP47645 well”. Moreover, the “testosterone normalization (RIA)” value in series [5] (14 obese hypogonadal men, weekly oral doses 0.003 mg to 5 mg, during treatment) is given as “rose in all men individually into the normal range”. Further, the “average serum estradiol at week 12” value in series [5] (baseline 24±4.9 pg/mL, LC-MS) amounted to 18 ± 9.4 pg/mL. For the same compound, in series [5] (baseline 250±22.3 ng/dL, RIA), the “average testosterone at week 12” value was 550 ± 191.8 ng/dL. In series [5] (setting [9]), the “average change of testosterone from baseline to week 12” value was “approximately 2 fold” and the “reduction of serum estradiol (LC-MS)” value is on record as 30-50%. In series [6], the hygroscopicity entry was “not hygroscopic”. Further, in series [7], the half-life entry was “about a week”. For the same compound, in series [8], the “effective dose achieving medical castration” value is given as 3 mg/kg.

These data come from patent publication US9750724B2, “Use of an aromatase inhibitor for the treatment of hypogonadism and related diseases” (Mereo BioPharma 2 Limited, priority 2011, dated 2017).
